Assay results reported in US10144947B2, “Method for detecting, identifying and enumerating micro-organisms in a porous support dry-impregnated with a dehydrated reaction medium” (BIOMÉRIEUX, priority 2014, dated 2018).
Where two headings read alike, the source gives them in different places. Values belong to the compound of their own block, whether it stands above or below them.

Experiments:
E. coli ATCC 25922 [1] = test: MIC of imipenem for the strain used; format: cell-based; conditions: Escherichia coli, ATCC25922, as stated in the conclusion
E. coli ATCC 25922 [2] = test: Growth (colony count) on ChromID CPS3 with 1 mg/l imipenem, agar medium or impregnated porous support; format: cell-based, Escherichia coli
Experimental: (§1) To produce the agar media, a liter of water is added to the test specimen of the dry medium, i.e. 38.3 g for ChromID CPS3. The dry medium is then dissolved with stirring, brought to the boil then sterilized by autoclaving. After cooling the agar medium to 55° C., the imipenem sterilized by filtration is added at a concentration of 1 mg/l. To carry out impregnation according to the present invention of the dry medium Chrom ID CPS3, a test specimen of the dry medium corresponding to the manufacture of one liter of medium is taken, i.e. 26 g, to which test specimen xanthan (20 g) and imipenem […] are added. All the constituents are then mixed together in a Turbula®. The porous supports are then impregnated by the culture media powder produced as described above and sterilized by gamma radiation between 10 and 17 kGy.

[3] = tested on: Pseudomonas aeruginosa ATCC 27853; test: MIC of imipenem for the strain used; format: cell-based; conditions: ATCC27853, Pseudomonas aeruginosa ATCC 27853, as stated in the conclusion
[4] = tested on: Pseudomonas aeruginosa ATCC 27853; test: Growth (colony count) on ChromID CPS3 with 1 mg/l imipenem, agar medium or impregnated porous support; format: cell-based; conditions: for CFU/ml, ChromID CPS3 with 1 mg/l imipenem: starting concentration 10^3 CFU/ml; for CFU, ChromID CPS3 with 1 mg/l imipenem: starting concentration 10^5 CFU/ml
Experimental: as §1

[5] = tested on: Proteus mirabilis API 8803080; test: MIC of ciprofloxacin for the strain tested; format: cell-based; conditions: listed as Ci
[6] = tested on: Proteus mirabilis API 9406037; test: MIC of ciprofloxacin for the strain tested; format: cell-based; conditions: listed as Ci
[7] = tested on: Pseudomonas aeruginosa API 9410075; test: MIC of ciprofloxacin for the strain tested; format: cell-based; conditions: P. aeruginosa API 9410075; listed as Ci
[8] = tested on: Pseudomonas aeruginosa API 7509005; test: MIC of ciprofloxacin for the strain tested; format: cell-based; conditions: P. aeruginosa API 7509005; listed as Ci
[9] = tested on: Pseudomonas aeruginosa API 9405063; test: MIC of ciprofloxacin for the strain tested; format: cell-based; conditions: P. aeruginosa API 9405063; listed as Ci
[10] = tested on: Proteus mirabilis API 8803099; test: Growth on MH2 or ChromID CPS3 with 1.5 mg/l ciprofloxacin, agar medium or impregnated porous support; format: cell-based; parameters: key to growth on MH2 Agar medium + 1.5 mg/l Ci / growth on Impregnation of porous support with MH2 + 1.5 mg/l Ci / growth on ChromID CPS3 Agar medium + 1.5 mg/l Ci / growth on Impregnation of porous support with ChromID CPS3 + 1.5 mg/l Ci: ++: grow; −−: do not grow
Experimental: (§2) To produce the agar media, a liter of water is added to the test specimen of the dry medium, i.e. 38.3 g for ChromID CPS3 and 41.57 g for the Muller Hinton 2 medium. The dry medium is then dissolved with magnetic stirring, brought to the boil then sterilized by autoclaving. […]. The whole thing is then mixed together in a Turbula®. The porous supports are then impregnated with the culture media powders as described above and sterilized by gamma radiation between 10 and 17 kGy.

[11] = tested on: Proteus vulgaris API 8803017; test: as above; format: cell-based; parameters: key to growth on MH2 Agar medium + 1.5 mg/l Ci / growth on Impregnation of porous support with MH2 + 1.5 mg/l Ci / growth on ChromID CPS3 Agar medium + 1.5 mg/l Ci / growth on Impregnation of porous support with ChromID CPS3 + 1.5 mg/l Ci: ++: grow; −−: do not grow
Experimental: as §2

[12] = tested on: Pseudomonas aeruginosa API 9405061; test: as above; format: cell-based; parameters: key to growth on MH2 Agar medium + 1.5 mg/l Ci / growth on Impregnation of porous support with MH2 + 1.5 mg/l Ci / growth on ChromID CPS3 Agar medium + 1.5 mg/l Ci / growth on Impregnation of porous support with ChromID CPS3 + 1.5 mg/l Ci: ++: grow; −−: do not grow
Experimental: as §2

[13] = tested on: Pseudomonas aeruginosa API 9405063; test: as above; format: cell-based; parameters: key to growth on MH2 Agar medium + 1.5 mg/l Ci / growth on Impregnation of porous support with MH2 + 1.5 mg/l Ci / growth on ChromID CPS3 Agar medium + 1.5 mg/l Ci / growth on Impregnation of porous support with ChromID CPS3 + 1.5 mg/l Ci: ++: grow; −−: do not grow
Experimental: as §2

[14] = tested on: Proteus mirabilis API 8803080; test: as above; format: cell-based; parameters: key to growth on MH2 Agar medium + 1.5 mg/l Ci / growth on Impregnation of porous support with MH2 + 1.5 mg/l Ci / growth on ChromID CPS3 Agar medium + 1.5 mg/l Ci / growth on Impregnation of porous support with ChromID CPS3 + 1.5 mg/l Ci: ++: grow; −−: do not grow
Experimental: as §2

[15] = tested on: Proteus mirabilis API 9406037; test: as above; format: cell-based; parameters: key to growth on MH2 Agar medium + 1.5 mg/l Ci / growth on Impregnation of porous support with MH2 + 1.5 mg/l Ci / growth on ChromID CPS3 Agar medium + 1.5 mg/l Ci / growth on Impregnation of porous support with ChromID CPS3 + 1.5 mg/l Ci: ++: grow; −−: do not grow
Experimental: as §2

[16] = tested on: Pseudomonas aeruginosa API 9410075; test: as above; format: cell-based; parameters: key to growth on MH2 Agar medium + 1.5 mg/l Ci / growth on Impregnation of porous support with MH2 + 1.5 mg/l Ci / growth on ChromID CPS3 Agar medium + 1.5 mg/l Ci / growth on Impregnation of porous support with ChromID CPS3 + 1.5 mg/l Ci: ++: grow; −−: do not grow
Experimental: as §2

[17] = tested on: Pseudomonas aeruginosa API 7509005; test: as above; format: cell-based; parameters: key to growth on MH2 Agar medium + 1.5 mg/l Ci / growth on Impregnation of porous support with MH2 + 1.5 mg/l Ci / growth on ChromID CPS3 Agar medium + 1.5 mg/l Ci / growth on Impregnation of porous support with ChromID CPS3 + 1.5 mg/l Ci: ++: grow; −−: do not grow
Experimental: as §2

[18] = tested on: Pseudomonas aeruginosa API 9405061; test: MIC of ciprofloxacin for the strain tested; format: cell-based; conditions: P. aeruginosa API 9405061
[19] = tested on: Proteus mirabilis API 8803099; test: MIC of ciprofloxacin for the strain tested; format: cell-based
[20] = tested on: Proteus vulgaris API 8803017; test: MIC of ciprofloxacin for the strain tested; format: cell-based; conditions: API8803017
[21] = porous support according to the invention
[22] = ChromID CPS3 agar medium, 1.5 mg/l ciprofloxacin
[23] = MH2 agar medium, 1.5 mg/l ciprofloxacin
[24] = MH2 and ChromID CPS3, agar and porous support, 1.5 mg/l ciprofloxacin
[25] = porous support impregnated with ChromID CPS3, 1.5 mg/l ciprofloxacin
[26] = porous support impregnated with MH2, 1.5 mg/l ciprofloxacin
[27] = all the agar or impregnated media, ciprofloxacin 1.5 g/1 [sic]

MIC (E. coli ATCC 25922 [1]): 0.12 µg/mL | MIC [3]: 2 µg/mL
Structure (SMILES): C[C@@H](O)[C@H]1C(=O)N2C(C(=O)O)=C(SCCN=CN)C[C@H]12 [imipenem]
CFU/ml, ChromID CPS3 with 1 mg/l imipenem (E. coli ATCC 25922 [2]; ChromID CPS3 agar, starting concentration 10^3 CFU/ml): 0 CFU/ml | CFU/ml, ChromID CPS3 with 1 mg/l imipenem (E. coli ATCC 25922 [2]; ChromID CPS3 agar, starting concentration 10^5 CFU/ml): 0 CFU/ml | CFU/ml, ChromID CPS3 with 1 mg/l imipenem (E. coli ATCC 25922 [2]; porous support according to the invention, starting concentration 10^3 CFU/ml): 0 CFU/ml | CFU/ml, ChromID CPS3 with 1 mg/l imipenem (E. coli ATCC 25922 [2]; porous support according to the invention, starting concentration 10^5 CFU/ml): 0 CFU/ml | CFU/ml, ChromID CPS3 with 1 mg/l imipenem ([4]; ChromID CPS3 agar): 677 CFU/ml | CFU, ChromID CPS3 with 1 mg/l imipenem ([4]; ChromID CPS3 agar): ≥300 colonies | CFU/ml, ChromID CPS3 with 1 mg/l imipenem [4, 21]: 453 CFU/ml | CFU, ChromID CPS3 with 1 mg/l imipenem [4, 21]: ≥300 colonies

MIC [5]: 0.38 to 0.5 µg/mL | MIC [6]: 8 to 12 µg/mL | MIC [7]: >32 µg/mL | MIC [8]: 0.25 µg/mL | MIC [9]: 6 to 8 µg/mL | MIC [18]: less than 1.5 mg/l | MIC ([18]; listed as Ci): 0.25 µg/mL | MIC [19]: less than 1.5 mg/l | MIC ([19]; listed as Ci): 0.032 µg/mL | MIC [20]: < 1.5 µg/mL
Structure (SMILES): O=C(O)c1cn(C2CC2)c2cc(N3CCNCC3)c(F)cc2c1=O [ciprofloxacin, Ciprofloxacin]
growth on ChromID CPS3 Agar medium + 1.5 mg/l Ci [10, 22]: −− | growth on MH2 Agar medium + 1.5 mg/l Ci [10, 23]: −− | growth on agar media and impregnated porous supports with ciprofloxacin (in words) [10, 24]: do not grow | growth on Impregnation of porous support with ChromID CPS3 + 1.5 mg/l Ci [10, 25]: −− | growth on Impregnation of porous support with MH2 + 1.5 mg/l Ci [10, 26]: −− | growth on ChromID CPS3 Agar medium + 1.5 mg/l Ci [11, 22]: −− | growth on MH2 Agar medium + 1.5 mg/l Ci [11, 23]: −− | growth on agar media and impregnated porous supports with ciprofloxacin (in words) [11, 24]: do not grow | growth on Impregnation of porous support with ChromID CPS3 + 1.5 mg/l Ci [11, 25]: −− | growth on Impregnation of porous support with MH2 + 1.5 mg/l Ci [11, 26]: −− | growth on ChromID CPS3 Agar medium + 1.5 mg/l Ci [12, 22]: −− | growth on MH2 Agar medium + 1.5 mg/l Ci [12, 23]: −− | growth on agar media and impregnated porous supports with ciprofloxacin (in words) [12, 24]: do not grow | growth on Impregnation of porous support with ChromID CPS3 + 1.5 mg/l Ci [12, 25]: −− | growth on Impregnation of porous support with MH2 + 1.5 mg/l Ci [12, 26]: −− | growth on ChromID CPS3 Agar medium + 1.5 mg/l Ci [13, 22]: ++ | growth on MH2 Agar medium + 1.5 mg/l Ci [13, 23]: ++ | growth on agar media and impregnated porous supports with ciprofloxacin (in words) [13, 27]: grow | growth on Impregnation of porous support with ChromID CPS3 + 1.5 mg/l Ci [13, 25]: ++ | growth on Impregnation of porous support with MH2 + 1.5 mg/l Ci [13, 26]: ++ | growth on ChromID CPS3 Agar medium + 1.5 mg/l Ci [14, 22]: −− | growth on MH2 Agar medium + 1.5 mg/l Ci [14, 23]: −− | growth on agar media and impregnated porous supports with ciprofloxacin (in words) [14, 24]: do not grow | growth on Impregnation of porous support with ChromID CPS3 + 1.5 mg/l Ci [14, 25]: −− | growth on Impregnation of porous support with MH2 + 1.5 mg/l Ci [14, 26]: −− | growth on ChromID CPS3 Agar medium + 1.5 mg/l Ci [15, 22]: ++ | growth on MH2 Agar medium + 1.5 mg/l Ci [15, 23]: ++ | growth on agar media and impregnated porous supports with ciprofloxacin (in words) [15, 27]: grow | growth on Impregnation of porous support with ChromID CPS3 + 1.5 mg/l Ci [15, 25]: ++ | growth on Impregnation of porous support with MH2 + 1.5 mg/l Ci [15, 26]: ++ | growth on ChromID CPS3 Agar medium + 1.5 mg/l Ci [16, 22]: ++ | growth on MH2 Agar medium + 1.5 mg/l Ci [16, 23]: ++ | growth on agar media and impregnated porous supports with ciprofloxacin (in words) [16, 27]: grow | growth on Impregnation of porous support with ChromID CPS3 + 1.5 mg/l Ci [16, 25]: ++ | growth on Impregnation of porous support with MH2 + 1.5 mg/l Ci [16, 26]: ++ | growth on ChromID CPS3 Agar medium + 1.5 mg/l Ci [17, 22]: −− | growth on MH2 Agar medium + 1.5 mg/l Ci [17, 23]: −− | growth on agar media and impregnated porous supports with ciprofloxacin (in words) [17, 24]: do not grow | growth on Impregnation of porous support with ChromID CPS3 + 1.5 mg/l Ci [17, 25]: −− | growth on Impregnation of porous support with MH2 + 1.5 mg/l Ci [17, 26]: −−
